Source: patent US20200325453A1, “METHOD FOR PRODUCING NAÏVE PLURIPOTENT STEM CELLS” (priority 2015, published 2020)

Assays:
ESRRB [1] = assay: ESRRB gene expression by qPCR, effect of Go6983 addition timing (Example 3); assay type: cell-based, human; details: 201B7 cells passage 1; KSR 2iLFA medium with Go6983 (5 μM) versus without; doxycycline added; low oxygen
Experimental: The iPS cells gene-introduced and cloned in “1.2 Generation of gene-introduced cell line” were dissociated into single cells by using a dissociation solution and TrypLE™ Select, and seeded in a 6-well plate at 1×10^5 cells/well in which MEF cells had been seeded as feeder. At this time, as a medium, 2iLFA+Go6983 medium shown in Table 1 (hereinafter, also abbreviated as “the medium of the present invention”) was used, and cultured in low oxygen in a state in which doxycycline (1 μg/mL) was further added so as to induce expression of the introduced gene (Passage 1; P1). Note here that on the first day of the start of making naïve, Y27632 (ROCK inhibitor) was added so as to be 10 μM, […]. On day 5 to 7 after the start of making naïve, subculturing was performed. The medium was removed, and then 350 μL of 0.25% Trypsin-EDTA was added in each well to cause reaction for one minute at 37° C. The reaction was stopped by Trypsin Inhibitor, and then 5 mL of medium was added thereto. Pipetting was carried out several times using PIPETTE AID to detach colonies of iPS cells from a sheet of feeder cells. The colonies were collected in a 15-mL tube. After centrifugation, a supernatant was removed, and 200 μL of medium was added, followed by pipetting using P200 […] about 40 times to be dissociated into single cells. […]

ESRRB [2] = assay: ESRRB gene expression by qPCR, effect of Forskolin and A83-01 on making naïve (Example 4); assay type: cell-based, human; details: 201B7 cells; 10 μM Forskolin and 0.5 μM A83-01 added to 2iL+Go6983 medium

Compound | expression of ESRRB (ESRRB [1]) | maintenance of the naïve state of iPS cells after stopping induction of expression of the introduced gene (ESRRB [2])
COc1ccc2c(c1)c(C1=C(c3c[nH]c4ccccc34)C(=O)NC1=O)cn2CCCN(C)C [Go6983, 3-[1-[3-(dimethylamino)propyl]-5-methoxy-1H-indole-3-yl]-4-(1H-indole-3-yl)-1H-pyrrole-2,5-dione] | higher expression of ESRRB | 
Cc1cccc(-c2nn(C(=S)Nc3ccccc3)cc2-c2ccnc3ccccc23)n1 [A83-01, 3-(6-methyl-2-pyridinyl)-N-phenyl-4-(4-quinolinyl)-1H-pyrazole-1-carbothioamide] |  | needed in order to maintain the naïve state of the iPS cells
